Test results as given in US20060168668A1, “Phosphodiesterase 2a and methods of use” (Memory Pharmaceuticals Corporation, priority 2003, published 2006).
Each block holds one compound with its values, some of them ahead of it.

Legend:
Format in all cases: biochemical
recombinant human PDE2A4 [1] = molecular target: T1, recombinant human PDE2A4 (Homo sapiens, UniProt O00408, P38L/T213A/V664A); assay: Enzyme activity assay, Km and Vmax of human PDE2A4 for cAMP and cGMP
T1 construct: made in house; host or cells: QM-7 cells (quail myoblast line), transient transfection, crude cell lysate
Method: (§1) To express in active form, human PDE2A4 cDNA was cloned downstream of the CMV promoter into pcDNA3.1/V5-His-TOPO vector, and the plasmid was transiently transfected into QM-7 cells by lipofectamine-plus reagent (Invitrogen). Forty-eight hours after the transfection, the QM-7 cells were lysed in buffer containing 50 mM Tris/HCl, 10 mM NaCl, 5 mM EGTA, 1 mM EDTA, 1 mM DTT and proteinase inhibitor cocktail (Roche). The cell lysate was used as a source for recombinant hsPDE2A4 enzyme.
(§2) The enzyme activity assay was performed according to Thompson et al, Ann N Y Acad Sci, 185:36-41 (1971) and Alvarez et al, Anal Biochem, 203:76-82 (1992) in the presence of 50 mM Tris/HCl, pH 8.0, 5 mM MgCl2, 4 mM 2-mercaptoethanol and 0.3 mg/ml BSA. […] The experiments were performed in duplicates for each substrate concentration. The Km and Vmax were calculated with Michaelis-Menten equation on Prism software.

recombinant human PDE2A4 [2] = molecular target: T1, recombinant human PDE2A4; assay: cGMP stimulation of hsPDE2A4 cAMP-hydrolyzing activity; conditions: 10 μM cGMP; cAMP substrate 30 μM ([3H]-cAMP/cAMP)
Method: FIG. 4. cGMP stimulation of hsPDE2A4 activity. QM7 lysate containing recombinant human PDE2A4 was used in stimulation assay. […] The enzyme activities in the absence or presence of 10 μM cGMP were compared. Data analysis was performed using Prism software.
as §1, §2
The enzymatic activity of recombinant human PDE2A4 can be stimulated by cGMP, a unique characteristic for PDE2 gene family (FIG. 4).

recombinant human PDE2A4 [3] = molecular target: T1, recombinant human PDE2A4; assay: Inhibition of recombinant human PDE2A4 enzyme activity (QM7 lysate); conditions: QM7 lysate containing recombinant human PDE2A4
Method: FIG. 3. EHNA inhibition of hsPDE2A4 activity. QM7 lysate containing recombinant human PDE2A4 was used in inhibition assay with increased concentration of inhibitors (EHNA and Rolipram; 10^−9-10^−[…]). The data and graph were analyzed and generated using Prism software.
as §1, §2

[4] = substrate of human PDE2A4, QM-7 cell lysate, Michaelis-Menten, Prism

T1 sequence (O00408 1-932 isoform O00408-4 P29L/T204A/V655A): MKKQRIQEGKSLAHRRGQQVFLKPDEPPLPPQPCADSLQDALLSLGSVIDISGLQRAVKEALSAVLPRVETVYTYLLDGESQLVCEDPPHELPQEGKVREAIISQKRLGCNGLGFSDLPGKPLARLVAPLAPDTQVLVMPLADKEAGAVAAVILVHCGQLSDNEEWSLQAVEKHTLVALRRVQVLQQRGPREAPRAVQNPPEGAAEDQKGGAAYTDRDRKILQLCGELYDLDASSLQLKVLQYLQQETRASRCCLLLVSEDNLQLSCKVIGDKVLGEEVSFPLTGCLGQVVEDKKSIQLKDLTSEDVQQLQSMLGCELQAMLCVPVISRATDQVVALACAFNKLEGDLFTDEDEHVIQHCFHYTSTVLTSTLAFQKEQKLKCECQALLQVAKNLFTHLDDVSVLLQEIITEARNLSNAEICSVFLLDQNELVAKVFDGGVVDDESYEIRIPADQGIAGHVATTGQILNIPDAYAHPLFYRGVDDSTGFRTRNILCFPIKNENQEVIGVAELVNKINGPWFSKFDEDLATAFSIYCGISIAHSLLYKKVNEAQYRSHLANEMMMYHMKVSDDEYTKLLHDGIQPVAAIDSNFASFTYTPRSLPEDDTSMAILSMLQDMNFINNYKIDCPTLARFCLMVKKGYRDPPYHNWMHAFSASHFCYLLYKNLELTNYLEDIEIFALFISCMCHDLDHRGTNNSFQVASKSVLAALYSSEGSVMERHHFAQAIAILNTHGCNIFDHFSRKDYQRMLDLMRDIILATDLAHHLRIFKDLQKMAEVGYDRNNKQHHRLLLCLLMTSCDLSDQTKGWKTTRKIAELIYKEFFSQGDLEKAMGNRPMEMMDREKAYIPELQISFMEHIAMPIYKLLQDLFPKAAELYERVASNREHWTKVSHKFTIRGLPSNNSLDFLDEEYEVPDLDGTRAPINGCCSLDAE

affinity of human PDE2A4 for cGMP relative to cAMP (recombinant human PDE2A4 [1]; cGMP versus cAMP): ~2 fold
Km (recombinant human PDE2A4 [1]; [4]): 17.5 µM
Vmax (recombinant human PDE2A4 [1]; [4]): Vmax = 334.4 ± 16.0 pmol/mg/min
stimulation of activity for hydrolyzing cAMP (recombinant human PDE2A4 [2]): elevated more than three-fold
SMILES: Nc1nc2c(ncn2[C@@H]2O[C@@H]3COP(=O)(O)O[C@H]3[C@H]2O)c(=O)[nH]1 [cGMP, cyclic guanosine 5′ monophosphate]

IC50 (recombinant human PDE2A4 [3]; inhibitors 10^−9-10^−4 μM, read-out: IC50, inhibition of enzymatic activity of recombinant human PDE2A4): 1100 nM
SMILES: CCCCCCC(C(C)O)n1cnc2c(N)ncnc21 (stereo not drawn) [EHNA, erythro-9-(2-hydroxy-3-nonyl)adenine]

inhibitory effect on human PDE2A4 enzyme activity (recombinant human PDE2A4 [3]; inhibitors 10^−9-10^−4 μM (FIG. 3)): no inhibitory effect
SMILES: COc1ccc(C2CNC(=O)C2)cc1OC1CCCC1 (stereo not drawn) [Rolipram]
